Publication PMC5585240, “NF-κB inhibitors, unique γ-pyranol-γ-lactams with sulfide and sulfoxide moieties from Hawaiian plant Lycopodiella cernua derived fungus Paraphaeosphaeria neglecta FT462” (Scientific Reports, 2017)
Entries after “also recorded” stand apart in the source; their conditions may differ. Where two headings read alike, the source gives them in different places.

Legend:
[1] = Cytotoxicity in the iNOS assay; type: cell-based; settings: mouse, RAW 264.7 cells
[2] = Cytotoxicity under the same conditions as the NF-κB assay; type: cell-based; settings: human
[3] = test system: E. coli JW2496 (∆bamB); assay: Antibacterial microbroth dilution assay; type: cell-based; settings: 20 μg/mL (maximum test concentration)
Protocol: MIC values were determined against E. coli JW2496 (∆bamB) and other bacteria using the standard microbroth dilution method exactly as previously described, which is based on the methods by the Clinical and Laboratory Standards Institute[41], [42]. The maximum test concentration used was 20 μg/mL.

[4] = test system: NF-κB; assay: TNF-α-induced NF-κB luciferase reporter assay in human embryonic kidney cells 293; type: cell-based; settings: 293 cells, 6 h, read-out: NF-κB inhibition IC50
Protocol: We employed human embryonic kidney cells 293, Panomic for monitoring changes occurring along the NF-κB pathway. Stable constructed cells were seeded into 96-well plates at 20 × 10^3 cells per well. Cells were maintained in Dulbecco’s modified Eagle’s medium (DMEM) (Invitrogen Co.), supplemented with 10% FBS, 100 units/mL penicillin, 100 μg/mL streptomycin, and 2 mM L-glutamine. After 48 h incubation, the medium was replaced and the cells were treated with various concentrations of test substances. TNF-α (human, recombinant, E. coli, Calbiochem) was used as an activator at a concentration of 2 ng/mL (0.14 nM). The plate was incubated for 6 h. Spent medium was discarded, and the cells were washed once with PBS. Cells were lysed using 50 μL (for 96-well plate) of reporter lysis buffer from Promega by incubating for 5 min on a shaker, and stored at −80 °C. The luciferase assay was performed using the Luc assay system from Promega. The gene product, luciferase enzyme, reacts with luciferase substrate, emitting light, which was detected using a luminometer (LUMIstar Galaxy BMG). Data for NF-κB inhibition are expressed as IC50 values (i.e., concentration required to inhibit TNFinduced NF-kB activity by 50%). The known NF-κB inhibitor TPCK was used as a positive control.

[5] = test system: iNOS; assay: Nitric oxide (iNOS) assay in LPS-stimulated RAW 264.7 cells, Griess reagent; type: cell-based; settings: Mus musculus, RAW264.7; lipopolysaccharide-stimulated (1 μg/mL, 20 h) RAW 264.7 cells, nitrite; read-out: iNOS inhibition IC50
Protocol: RAW 264.7 cells (1 × 10^4 cells/well) were seeded and incubated in 96-well culture plates at 37 °C, 5% CO2 in humidified air for 24 h. Then, complete medium was replaced with phenol red-free medium containing various concentrations of the test compounds, followed by LPS stimulation (1 μg/mL) for 20 h. The nitrite released in the culture media was reacted with Griess reagent, and the absorbance was measured at 540 nm. The amount of nitrite was calculated using a standard curve of known nitrite concentration versus absorbance at 540 nm. TPCK was used as a positive control. IC50 values were calculated using Table Curve 2D Windows V4.07 by AISN Software Inc[44].

[6] = test system: STAT3; parameters: method as in PMID 26107089, PMID 16928075; settings: cited from earlier work
[7] = Homo sapiens, HEK293, TNF-α (2 ng/mL) induced NF-κB activity

Row | SMILES | IC50 at 20 h [1] | IC50 at 6 h [2] | inhibition of E. coli JW2496 [3] | IC50 [4, 7] | IC50 [5] | IC50 ([4]; TNF-α (2 ng/mL) induced NF-κB activity) | STAT3 inhibition [6]
1 | CCCCC[C@@H]1OC2=C(C(=O)N(OC)[C@@H]2CSC[C@@H](O)C(=O)O)[C@H](O)[C@@]1(C)O [Compound 1, Paraphaeosphaeride E] | > 50 µM | > 50 µM | mildly inhibited | 7.1 µM | 47.9 ± 0.03 µM | – | –
2 | CCCCC[C@@H]1OC2=C(C(=O)N(OC)[C@@H]2CSC[C@@H](O)C(=O)O)[C@@H](O)[C@@]1(C)O [Compound 2, Paraphaeosphaeride F] | > 50 µM | > 50 µM | – | – | 43.2 ± 0.7 µM | – | –
3 | CCCCC[C@@H]1OC2=C(C(=O)N(OC)[C@@H]2C[S@+]([O-])C[C@@H](O)C(=O)O)[C@H](O)[C@@]1(C)O [Compound 3, Paraphaeosphaeride G] | > 50 µM | > 50 µM | – | 1.5 µM | 16.1 ± 6.6 µM | – | –
4 | Cc1ccc(S(=O)(=O)N[C@@H](Cc2ccccc2)C(=O)CCl)cc1 [TPCK, N α-tosyl-l-phenylalanine chloromethyl ketone, reference compound] | – | – | – | – | – | 4.09 ± 0.12 µM | –
6 | C=C1C2=C(C(=O)N1OC)[C@H](O)[C@@](C)(O)[C@H](CCCCC)O2 [phaeosphaeride A] | – | – | – | – | – | – | showed STAT3 inhibition; also recorded: showed STAT3 inhibitory activity
